Experimental findings from patent US7226949B2, “Compounds of use in the treatment of epilepsy, seizure, and electroconvulsive disorders” (University of Kentucky, priority 2002, dated 2007) are described below.

In data set [1] the test system is focal seizures in hippocampal kindled rats. As to the kind of experiment: Hippocampal kindling model. The following applies: hippocampal kindling model; not as effective as 4,4′-thiodianiline. Type of data set: in vivo, Sprague-Dawley rats. The text has this:
Hippocampal Kindling Model
The hippocampal kindling model is an experimental seizure model used to simulate focal seizures. This model evaluates the capacity of a compound to affect both the expression and acquisition of focal seizures. In addition, kindled seizures provide a methodology for studying complex brain networks that may contribute to the spread and generalizations of seizures from a focus. The hippocampal kindling model has the advantage of being one of the only kindling models that can evaluate the temporal effects of an agent in a single animal. For this assessment, bipolar electrodes are surgically implanted in the ventral hippocampus of adult male Sprague-Dawley rats (275-300 g) under ketamine-xylazine anesthesia. Following a one-week recovery period, stage five behavioral seizures are induced by stimulating the rat 12 times per day with 50 Hz, 10 s train of 1 ms biphasic 200 μA pulses delivered every 30 min for six hours on alternating days. After five stimulus days, the animal has had 60 stimulations. A drug free control period with supramaximal stimulations is used to verify the stability of a stage five generalized seizure before the anticonvulsant activity of a drug is measured.
This screen is used to measure the capacity of the drug to prevent the expression of focal seizures. […] The animal is exposed to an initial stimulation of 20 μA; the stimulation is increased in 10 μA increments every one-two minutes until an afterdischarge is recorded. After the stability of the stage five seizure is established, the drug candidate is administered to the rats via intraperitoneal injection 15 minutes after the last control stimulation. Starting with the first dose, the anticonvulsant activity of the test agent is measured every thirty minutes for four hours. Following each stimulation, Racine seizure scores and afterdischarge durations are compared to control values to quantify the anti-convulsant activity of the agent. The Racine seizure scores vary from stage 1 to 5. The stages are characterized according to the following criteria: Stage 1—mouth and facial clonus, Stage 2—stage 1 and head nodding, Stage 3—stage 2 and forelimb clonus, Stage 4—stage 3 and rearing, Stage 5—stage 4 and repeated rearing and falling. Since a single animal is used, each rat serves as its own control.
4,4′-Thiodianiline was used in the rat hippocampal kindled rats to screen to measure its anticonvulsant potential. Doses of 12.5, 25, 50 and 100 mg/kg were evaluated at a minimum of seven time points (n=7 for each dose and each time point). […] After oral administration of the test compound stimulation, the Racine seizure scores and afterdischarge durations were measured and are shown below. The Racine seizure scores dropped from between a stage 4 and stage 5 seizure for control measurements to between a stage 1 and stage 2 seizure after treatment with 4,4′-thiodianiline.

In data set [2] the test system is MES-induced seizure. Kind of data set: Maximal Electroshock Seizure (MES) test in mice, intraperitoneal administration. In kind it is in vivo. The text has this: (§1) The Maximal Electroshock Seizure (MES) or Maximal Seizure Pattern Test
(§2) The MES is an experimental model for generalized tonic-clonic seizures that identifies compounds that prevent seizure spread. The MES model is highly reproducible and has a consistent endpoint. An advantage of this model is that the behavioral and electrographic seizures are consistent with those observed in humans.
(§3) In the MES test, the animal receives an electrical stimulus, 0.2 seconds in duration, via corneal electrodes primed with an electrolyte solution containing an anesthetic agent. The 0.2 second stimulation is generated with 150 mA in rats and 50 mA in mice at 60 Hz. […] In rats, the compound is administered orally, while mice receive the agent via intraperitoneal injection. The test endpoint, electrogenic seizure, is manifested as hindlimb tonic extension.

Data set [3] concerns MES-induced seizure. Kind of data set: Maximal Electroshock Seizure (MES) test in rats, oral administration. Type of data set: in vivo. The following applies: for Percentage of rats in which the test compound prevented MES-induced seizure: 30 mg/kg oral; for Time to Peak Effect: MES test; for ED50: read-out: ED50 required to inhibit MES-induced seizure.
Excerpt: as §1, §2, §3
A full dose-response curve was also generated in rats to determine the ED50 value (n=8 at each time point). […] The ED50 of 4,4′-thiodianiline was evaluated in both rats and mice.

The test system of a further data set is 6 Hz seizures. Kind of data set: 6 Hz kindling model. In kind it is in vivo, mice. How it is done:
The 6 Hz kindling model is another experimental seizure model that effectively detects compounds with anti-seizure activity. This screen is used to evaluate the ability of a compound to prevent the acquisition of focal seizures; in particular, the capacity of a compound to prevent the development of seizures induced by a low-frequency (6 Hz), long duration (three seconds) stimulus in electrode […] is evaluated. Several of the most promising compounds were evaluated in this screen to further characterize their anti-seizure activity.
In the 6 Hz kindling test, mice are implanted with corneal electrodes. The test compound is administered (i.p.) to the animal at 0.25, 0.5, 1, 2, or 4 hours prior seizure induction. The seizure is initiated by delivering a current (32 mA at 6 Hz for three seconds) to the animal through the corneal electrodes. The resulting psychomotor seizure is usually characterized by a minimal clonic phase followed by stereotyped, automatistic behaviors. This response is analogous to the aura of human patients with partial seizures.

Another data set deals with rats. Kind of data set: Minimal neurotoxicity in rats, positional sense and gait and stance tests. The conditions noted are these: for toxicity: 250 mg/kg. Type of data set: in vivo. The text has this:
If the rat experiences neurological toxicity, it will not be able to quickly lift its leg quickly back to a normal position.
In the gait and stance test, neurotoxicity is indicated by a circular or zigzag gait after administration of the test compound. In addition, ataxia, abnormal spread of the legs, abnormal posture, tremor hyperactivity, lack of exploratory behavior, somnolence, stupor, or catalepsy can indicate neurotoxicity.

A further data set deals with mice. As to the kind of experiment: Minimal neurotoxicity in mice, rotorod test. The conditions noted are these: for toxicity: 100 mg/kg. A general note: Falling from the rotarod earlier than controls is read as motor impairment.
[4] abbreviates: 30 mg/kg i.p., 0.5 h after administration.
[5] abbreviates: 30 mg/kg i.p., 4.0 h after administration.
Setting [6] is: 100 mg/kg i.p., 0.5 h after administration.
[7] abbreviates: 100 mg/kg i.p., 4.0 h after administration.
Setting [8] is: 300 mg/kg i.p., 0.5 h after administration.
Setting [9] is: 300 mg/kg i.p., 4.0 h after administration.
The mark [10] stands for this setting: rat, oral administration, at the time of peak effect, n=8.
Where [11] appears, read: 30 mg/kg i.p., 0.25 h after administration.
[12] abbreviates: 30 mg/kg i.p., 1.0 h after administration.
[13] abbreviates: 100 mg/kg i.p., 0.25 h after administration.
[14] abbreviates: 100 mg/kg i.p., 1.0 h after administration.
The mark [15] stands for this setting: 100 mg/kg i.p., 2.0 h after administration.

Each structure is given as a SMILES string. Where two headings read alike, the source gives them in different places.

With `Nc1ccc(NC(=O)c2ccc(N)cc2)cc1` [4,4′-Diaminobenzanalide], the “expression of fully kindled seizures” value in data set [1] is recorded as “had the capacity to block the expression of fully kindled seizures”.

As usually defined, the ED50 is the dose at which the effect has come halfway, by size or by number of responders. Consider `Nc1ccc(C(=O)c2ccc(N)cc2)cc1` [4,4′-diaminobenzophenone], for which the “Percentage of mice in which the test compound prevented MES-induced seizure” value is on record as 0% with MES-induced seizure [2] (setting [4]); 0% in the data set on MES-induced seizure [2] (setting [5]); 100% with MES-induced seizure [2] (setting [6]); 100% in the data set with MES-induced seizure [2] (setting [7]); 100% in the data set on MES-induced seizure [2] (setting [8]); 100% in the data set with MES-induced seizure [2] (setting [9]). The “Percentage of rats in which the test compound prevented MES-induced seizure” value (shortened to “Percentage of rats”) in the data set on MES-induced seizure [3] (0.25 h after administration) is 50%; in the data set on MES-induced seizure [3] (0.5 h after administration) it was 100%; with MES-induced seizure [3] (1.0 h after administration), 75%; in the data set with MES-induced seizure [3] (2.0 h after administration) it was 100%; with MES-induced seizure [3] (4.0 h after administration), 75%. Moreover, the “Time to Peak Effect” value in the data set on MES-induced seizure [3] (rat, oral administration) came out at 1 h. The ED50 in the data set with MES-induced seizure [3] (setting [10]) is 7.15 mg/kg. Further, the “Percentage of mice in which the test compound prevented seizure in the 6 Hz test” value (from here on “Percentage of mice … in the 6 Hz test”) in the data set on 6 Hz seizures (setting [11]) was 0%; in the data set on 6 Hz seizures (setting [4]), 0%; in the data set on 6 Hz seizures (setting [12]), 0%; in the data set with 6 Hz seizures (setting [13]), 100%; with 6 Hz seizures (setting [6]), 100%; with 6 Hz seizures (setting [14]) it was 100%. Further, the “Percentage of mice … in the 6 Hz test” value with 6 Hz seizures (setting [15]) and in the data set with 6 Hz seizures (setting [7]) was 0% in each case. Also, in the data set on rats (0.25 to 24 hours after oral administration, doses as high as 500 mg/kg), the acute neurotoxic effects entry is “None of the rats tested at any timepoints”. Moreover, the neurotoxicity result in the data set with mice (doses below 100 mg/kg) is reported as “showed no neurotoxicity”.

As to `Nc1ccc(Cc2ccc(N)cc2)cc1` [4,4′-methylenedianiline], the “Percentage of mice in which the test compound prevented MES-induced seizure” value with MES-induced seizure [2] (setting [4]) worked out at 0%; in the data set on MES-induced seizure [2] (setting [5]), 0%; with MES-induced seizure [2] (setting [6]), 100%; in the data set with MES-induced seizure [2] (setting [7]), 0%; in the data set with MES-induced seizure [2] (setting [8]), 100%; with MES-induced seizure [2] (setting [9]), 100%. The “Percentage of rats” value is recorded as 100% with MES-induced seizure [3] (0.25 h after administration); 75% in the data set on MES-induced seizure [3] (0.5 h after administration); 92% with MES-induced seizure [3] (1.0 h after administration); 100% in the data set on MES-induced seizure [3] (2.0 h after administration); 50% with MES-induced seizure [3] (4.0 h after administration). In addition, the ED50 in the data set on MES-induced seizure [3] (Rattus norvegicus, po) was 10.6 ± 5.88 mg/kg. The “Time to Peak Effect” value in the data set on MES-induced seizure [3] (rat, oral administration) worked out at 1 h. The “Percentage of mice … in the 6 Hz test” value amounted to 0% with 6 Hz seizures (setting [11]); 0% with 6 Hz seizures (setting [4]); 0% in the data set with 6 Hz seizures (setting [12]); 100% in the data set with 6 Hz seizures (setting [13]); 100% with 6 Hz seizures (setting [6]); 100% in the data set on 6 Hz seizures (setting [14]). For the same molecule, the “Percentage of mice … in the 6 Hz test” value in the data set on 6 Hz seizures (setting [15]) and with 6 Hz seizures (setting [7]) was 0% throughout. For the same molecule, the toxicity result with rats and in the data set on mice was “no significant toxicity” in each case.

As for `Nc1ccc(Nc2cccc(N)c2)cc1` [(3-aminophenyl)-(4-aminophenyl) amine], the “Percentage of mice in which the test compound prevented MES-induced seizure” value with MES-induced seizure [2] (setting [4]) was 0%; in the data set with MES-induced seizure [2] (setting [5]), 0%; with MES-induced seizure [2] (setting [6]), 100%; with MES-induced seizure [2] (setting [7]) it was 100%; in the data set on MES-induced seizure [2] (setting [8]), 100%; with MES-induced seizure [2] (setting [9]) it was 100%. Moreover, the “Percentage of rats” value amounted to 0% in the data set with MES-induced seizure [3] (0.25 h after administration); 50% with MES-induced seizure [3] (0.5 h after administration); 75% in the data set with MES-induced seizure [3] (1.0 h after administration); 50% in the data set with MES-induced seizure [3] (2.0 h after administration); 50% in the data set on MES-induced seizure [3] (4.0 h after administration). The “Time to Peak Effect” value with MES-induced seizure [3] (rat, oral administration) stood at 2 h. In addition, in the data set with MES-induced seizure [3] (setting [10]), the ED50 came out at 31.7 ± 24.4 mg/kg. The toxicity entry in the data set on rats and with mice was “no significant toxicity” in each case.
